The structures appear in SMILES notation. Results filed as inconclusive are left out. Calls of active or inactive are those of the source. No rule for the calls is given here.

The assay has as its system EBV lymphoblastoid cells (LCL) viability, plate reader. As to the kind of experiment: LCL viability reduction – cell-based, plate reader, cherry-picks, set 2, cytotoxicity control, dose response (AID 504882).
Consider `CCN(CC)CCC(=O)N1C/C(=C/c2ccccc2)C(=O)/C(=C\c2ccccc2)C1`, for which the concentration at half-maximal activity (AC50) was 1.36 µM.
With `C=CCn1c(O)c(N=NC(=S)Nc2ccccc2F)c2ccccc21`, the half-maximal activity concentration (AC50) was 10.2 µM.
Regarding `CCCCC(=O)NC(c1ccc(Cl)cc1)c1ccc2cccnc2c1O` (stereo not given), the AC50 was 3.65 µM.
To `CN(C)c1ccc(C=Cc2ccnc3c(O)cccc23)cc1` belongs 10.5 µM; to `C=CCn1c(C)c(C(C)=O)c(N2CCN(C(c3ccccc3)c3ccccc3)CC2)nc1=S`, > 19.5 µM (inactive).
As to `CC(=NNC(=S)Nc1ccccc1)c1ccccn1`, the concentration at half-maximal activity (AC50) was 0.068 µM.
As for `CCCCC(=O)NC(c1ccc(Cl)cc1Cl)c1ccc2cccnc2c1O` (stereo not given), the half-maximal activity concentration (AC50) is 2.55 µM.
Regarding `CCOC(=O)CC(NC(=O)C(Cc1ccc(N(CCCl)CCCl)cc1)NC(C)=O)C(=O)OCC` (stereo not given), the AC50 is 5.68 µM.
Next, `Cc1cc(S(=O)(=O)c2ccc(Cl)cc2)nc(S(=O)(=O)c2ccc(Cl)cc2)c1C#N`: 0.855 µM; `Cc1ccc2[nH]c3c(N4CCN(Cc5ccccc5)CC4)ncnc3c2c1`: 10.6 µM.
Take `Nc1ccc(C(=O)N/N=C\c2cc(N=Nc3cccc4ccccc34)ccc2O)cc1`: the AC50 was 10.7 µM.
As for `O=C(NNC(=S)Nc1ccc(Cl)c(Cl)c1)c1ccccn1`, the concentration at half-maximal activity (AC50) is 1.5 µM.
In the case of `COc1cc(C(=O)Oc2ccccc2/C=N/NC(=O)c2ccc(C)c(Cl)c2)cc(OC)c1OC`, the AC50 was 12.7 µM.
With `Cc1sc2ncnc(N/N=C/c3ccccc3O)c2c1C`, the AC50 is 3.59 µM.
`C=CC(=O)OCCOCCOCCOCCOC(=O)C=C`: the half-maximal activity concentration (AC50) is 16.9 µM.
For `O=[N+]([O-])c1ccc(O)c(/C=N/Nc2ncnc3c2cnn3-c2ccccc2)c1`, the concentration at half-maximal activity (AC50) is 4.55 µM.
To `CCCCC(=O)NC(c1ccc(OC)c(OC)c1)c1ccc2cccnc2c1O` (stereo not given) belongs 5.63 µM; to `CC(=O)NC(c1cccs1)c1cc(F)c2cccnc2c1O` (stereo not given), 6.96 µM.
As for `O=C(Nc1nc(-c2ccccn2)cs1)c1ccc(Br)s1`, the half-maximal activity concentration (AC50) was 1.29 µM.
Consider `O=C(N/N=C/c1ccc[nH]1)c1ccc(COc2cccc3cccnc23)cc1`, for which the AC50 was 4.93 µM.
Turning to `O=C(c1cccc(F)c1)N1CCN(c2cccc(Cl)c2)CC1`, the AC50 is 3.11 µM.
For the compound `C=C(C(=O)c1ccccc1)C(CC(=O)c1ccccc1)c1ccccc1` (stereo not given), the concentration at half-maximal activity (AC50) was 3.79 µM.
With `Fc1ccc2[nH]c3c(N4CCSCC4)ncnc3c2c1`, the concentration at half-maximal activity (AC50) is 17.5 µM.
To `O=C(CCl)N(c1ccc(Cl)cc1)c1c[nH]c2ccccc12` belongs 3.35 µM; to `CC(=O)NC(c1ccc(Cl)cc1)c1ccc2cccnc2c1O` (stereo not given), 1.21 µM.
Next, `Oc1c(N=NC(=S)Nc2ccccc2F)c2ccccc2n1Cc1cccc(Cl)c1`: > 19.5 µM (inactive).
As for `CC1(C)N=C(N)N=C(N)N1c1ccc(CCCCc2ccccc2)cc1`, the AC50 is 0.991 µM.
Next, `Cc1ccc2nc(-c3ccccn3)[nH]c2c1`: 19.5 µM.
For the compound `O=Cc1ccc(-c2cccs2)s1`, the concentration at half-maximal activity (AC50) is 11.8 µM.
For the compound `CC1=C(C(=O)OCc2ccc3c(c2)OCO3)C(c2ccc(Cl)cc2)NC(=O)N1` (stereo not given), the AC50 was 0.379 µM.
Consider `O=C(Nc1ccc(C(=O)N2CCOCC2)cc1)Nc1cccc(C(F)(F)F)c1`, for which the AC50 is > 19.5 µM (inactive).
As to `CC(=NNc1nc2ccccc2o1)c1cc2ccccc2cn1`, the concentration at half-maximal activity (AC50) is 0.154 µM.
Take `COc1ccc(Cc2nnc(N/N=C/c3ccc(O)cc3)[nH]c2=O)cc1OC`: the AC50 was 4.05 µM.
For `O=C(N/N=C/c1c(O)ccc2ccccc12)c1ccc(Br)o1`, the AC50 is 6.22 µM.
With `CCCCC(=O)NC(c1ccc(OC)cc1)c1ccc2cccnc2c1O` (stereo not given), the concentration at half-maximal activity (AC50) was 17.7 µM.
Regarding `CCN(CC)C(=O)c1ccc(NC(=O)Nc2ccccc2F)cc1`, the AC50 was 2.63 µM.
Next, `COc1ccc(-c2[nH]ncc2-c2ccc3c(c2)OCCO3)c(O)c1`: > 19.5 µM (inactive).
With `C=CCNC(=S)N/N=C(\C)c1ccccn1`, the AC50 is 0.13 µM.
`COc1cc(C=C2CCCC(=Cc3ccc(OCC4CO4)c(OC)c3)C2=O)ccc1OCC1CO1` (stereo not given): the AC50 is 5.45 µM.
Next, `CCNc1ccc(Br)cc(C(=O)/C=C/c2ccccc2Cl)c1=O`: 15.3 µM.
As for `CCCC(=O)NC(c1ccc(C(C)C)cc1)c1ccc2cccnc2c1O` (stereo not given), the AC50 was 1.74 µM.
`CCOc1ccc(C(=O)Nc2cc(C)ccn2)cc1`: the half-maximal activity concentration (AC50) is 9.64 µM.
For the compound `COc1ccc(CNC(=O)N2[C@H]3CC[C@@H]2C=C(c2ccc(F)cc2OCc2ccccc2)C3)cc1OC`, the AC50 was 2.3 µM.
For `Nc1ccn([C@@H]2O[C@H](CO)[C@@H](O)C2O)c(=O)n1` (stereo not given in full), the AC50 is 1.1 µM.
Consider `CC(=NNC(=S)N1CCCCCC1)c1ccccn1`, for which the AC50 was 0.354 µM.
`c1ccc(-c2cccc(-c3ccccn3)n2)nc1`: the AC50 is 1.69 µM.
With `COc1ccc(C=C2CS(=O)(=O)CC(=Cc3ccc(OC)cc3)C2=O)cc1`, the half-maximal activity concentration (AC50) is 0.675 µM.
As to `Oc1ccc(C=NNc2ccccn2)c(O)c1`, the AC50 is 16.2 µM.
To `O=C(CCc1ccccc1)NC(c1cccs1)c1cc(Cl)c2cccnc2c1O` (stereo not given) belongs 7.03 µM.
With `NC(=S)NN=Cc1nccc2c(C(F)(F)F)cccc12`, the AC50 is 1.15 µM.
For the compound `CCOC(=O)c1c2c(n(C)c1C)C(=O)C(=O)c1ccc(Br)cc1-2`, the AC50 is 1.95 µM.
To `O=C(Nc1ccc(N2CCOCC2)cc1)c1cn2ccccc2n1` belongs 10.9 µM; to `Oc1cccc(C(Nc2nccs2)c2ccc3cccnc3c2O)c1` (stereo not given), 11.4 µM; to `Oc1cccc2ccc(Nc3ccccn3)nc12`, 6.35 µM.
As for `O=C(Oc1c(Cl)cc(Cl)c2cccnc12)c1cccc([N+](=O)[O-])c1`, the AC50 was 18.8 µM.
`COc1ccc(N/N=C/c2c(C(=O)O)ccc3ccccc23)cc1`: the AC50 was 3.99 µM.
For the compound `CCN(CC)S(=O)(=O)c1ccc(N/N=C/c2ccc(O)cc2O)nc1`, the AC50 is 3.31 µM.
`O=C1C(=C(c2ccccc2)N2CCOCC2)Cc2ccccc21`: the AC50 was 5.38 µM.
Turning to `CCn1c2ccccc2c2cc(/C=N/NC(=O)c3ccccc3)ccc21`, the concentration at half-maximal activity (AC50) was 1.52 µM.
On to `COc1ccc(C(=O)NC2CCCc3c2cnn3-c2cccc(C)c2C)c(OC)n1` (stereo not given), for which the concentration at half-maximal activity (AC50) was 1.22 µM.
Next, `Cc1ccc2[nH]c(C(=O)N/N=C/c3ccccc3O)c(C)c2c1`: 3.05 µM; `O=C(N/N=C/c1cc2c3c(c1O)CCCN3CCC2)c1ccccc1O`: 3.05 µM.
On to `Oc1ccc2ccccc2c1N=Nc1ccccn1`, for which the concentration at half-maximal activity (AC50) was 4.54 µM.
With `COc1ccc(O)c(/C=N/Nc2nc(Nc3ccccc3)nc(-n3nc(C)cc3C)n2)c1`, the half-maximal activity concentration (AC50) was 10.7 µM.
Turning to `CCCCCCc1cc2cc(-c3nnc(-c4ccccc4)o3)c(=O)oc2cc1O`, the AC50 was 9.34 µM.
Regarding `COc1cccc(/C=N/Nc2ncnc(Cl)c2N)c1O`, the AC50 was 3.73 µM.
As to `S=C(NN=Cc1ccccn1)Nc1ccccn1`, the concentration at half-maximal activity (AC50) was 9.02 µM.
As to `O=C(NC(Nc1nc2ccc([N+](=O)[O-])cc2s1)(C(F)(F)F)C(F)(F)F)c1ccccc1`, the AC50 is 0.298 µM.
Next, `Cc1cc(=O)[nH]c(N=N/C(=N/Nc2ccccc2C)c2ccccc2)n1`: 8.28 µM.
With `NC(Cc1ccc(O)cc1)C(=O)NN=Cc1ccc(N(CCCl)CCCl)cc1` (stereo not given), the AC50 is 0.983 µM.
As to `CC(C)C(=O)NC(c1ccc(Cl)cc1Cl)c1ccc2cccnc2c1O` (stereo not given), the half-maximal activity concentration (AC50) is 2.28 µM.
Take `O=S(=O)(c1ccc2c(c1)C(=NO)c1cc(S(=O)(=O)N3CCCCC3)ccc1-2)N1CCCCC1`: the AC50 was 1.2 µM.
To `Cc1cccc(-n2ncc(Cl)c(Cl)c2=O)c1` belongs 1.59 µM.
Consider `CN=C1S/C(=C\c2ccc(O)c(Br)c2)C(=O)N1C`, for which the AC50 is > 19.5 µM (inactive).
Regarding `O=c1c2c(nc3c(-c4ccc(Cl)cc4)c[nH]n13)CCCC2`, the AC50 was 2.44 µM.
Next, `c1ccc(-c2nc(-c3ccccn3)no2)cc1`: 9.22 µM; `C=CCn1c(O)c(N=NC(=S)Nc2cccc(C)c2)c2ccccc21`: 2.48 µM.
In the case of `CC(=NNC(=S)Nc1ccccc1Cl)c1ccccn1`, the half-maximal activity concentration (AC50) is 0.055 µM.
`CC(=NNC(=S)Nc1cccc(Cl)c1)c1ccccn1`: the AC50 was 0.138 µM.
Regarding `CCCc1cc(=O)n2[nH]cc(-c3ccc(Cl)cc3)c2n1`, the concentration at half-maximal activity (AC50) is 8.45 µM.
Regarding `O=c1[nH]c(=O)n([C@H]2C[C@H](O)[C@@H](CO)O2)cc1C(F)(F)F`, the AC50 is 1.51 µM.
Take `COc1ccc(-c2nc(-c3cccs3)no2)cc1`: the AC50 is > 19.5 µM (inactive).
With `O=S(=O)(c1ccccc1)N1CCN(c2cc(-c3ccccc3)nc3ncnn23)CC1`, the AC50 was > 19.5 µM (inactive).
Regarding `CS(=O)(=O)c1ncc(Cl)c(C(=O)Nc2ccc(OC(F)F)cc2)n1`, the concentration at half-maximal activity (AC50) was 4.53 µM.
On to `CCCc1c(C(=O)N/N=C(\C)c2ccccn2)nnn1-c1nonc1N`, for which the concentration at half-maximal activity (AC50) is 1.57 µM.
For the compound `COc1ccc(-c2nnc(NC(=O)c3ccc(S(=O)(=O)N4CCCc5ccccc54)cc3)o2)cc1`, the AC50 is 15 µM.
On to `Cc1cc(Sc2nnc(N)s2)c2ccccc2n1`, for which the half-maximal activity concentration (AC50) was 16.8 µM.
With `C#CCN(C[C@@H]1[C@@H](OC(=O)NCC2CCCCC2)[C@@H](OC(=O)NCC2CCCCC2)Cn2c(=O)ccc(=O)n21)S(=O)(=O)c1ccc(C)cc1`, the AC50 was 3.84 µM.
Take `CC(=O)OC1CCC2(C)C(CCC3C4CC=C(C(C)=O)C4(C)OC(=O)CC32)C1` (stereo not given): the concentration at half-maximal activity (AC50) is 3.85 µM.
To `Cc1cc(=O)[nH]c(NN=Cc2cc(Br)ccc2O)n1` belongs 3.92 µM.
Turning to `CCn1c2ccccc2c2cc(/C=N/n3c(C)nnc3C)ccc21`, the AC50 was > 19.5 µM (inactive).
As for `CCn1c2ccccc2c2cc(/C=C(/C#N)C(N)=S)ccc21`, the half-maximal activity concentration (AC50) is 0.998 µM.
Next, `CC(C)OC(=O)c1ccc(NCc2cc(O)ccc2O)cc1Cl`: 5.06 µM; `Cc1ccc(C(=O)Nc2sc(Cc3ccc4c(c3)OCO4)c(C)c2C(N)=O)cc1`: 19.2 µM; `CCN(CC)c1ccc(/C=N/NC(=O)c2c(Cl)cnn2C)c(O)c1`: 3.19 µM.
For the compound `CCc1cc(C(=O)Nc2ncccc2O)sc1C`, the AC50 was > 19.5 µM (inactive).
`CCOC(=O)c1cnc(-n2nc(C)cc2C)nc1NNc1cc(C)nc(-c2ccccc2)n1`: the AC50 was 3.73 µM.
Next, `CCN(CC)S(=O)(=O)c1cc([N+](=O)[O-])ccc1NNC(=O)Nc1ccc(Cl)c(Cl)c1`: 20.2 µM; `Cc1cc(N/N=C\c2ccc(Br)cc2)nc(-n2nc(C)cc2C)n1`: 4.81 µM; `Clc1ccc(SCc2cc(N3CCOCC3)nc(-c3ccccn3)n2)cc1`: 4.05 µM.

By AC50 is commonly meant the midpoint of the concentration-response curve, whichever way the signal moves.

Values taken from PubChem BioAssay AID504882 (Broad Institute, 2011).
